The values that follow are results of earlier work, collected in patent US9192159B2, “Azoxystrobin formulations” (priority 2006, dated 2015).

As to `CO/C=C(/C(=O)OC)c1ccccc1Oc1cc(Oc2ccccc2C#N)ncn1` [Azoxystrobin], the Solubility in water entry was “low solubility in water”.
